Tested on: LDLR
Experiment: Western blot, LDLR protein level in HepG2
Format: cell-based, human
Conditions: 50 µM, 24 h
Experimental: A total of 1.5 × 10^5 HepG2 cells/well (24-well plate) were treated with 50 μM of P5 and P5 analogs for 24 h. Immunoblotting experiments were performed using optimized protocol. See Supplementary Materials for further details.
PBS for 1.5 h at RT. LDLR primary antibody solution (1:3000 in 5% BSA in PBS, 25 µL/well) was incubated O/N at +4 °C. Subsequently, the primary antibody solution was discarded and each sample was washed 5 times with 100 µL/well of PBS (each wash was for 5 min at RT). Goat anti-rabbit Ig-HRP secondary antibody solution (Santa Cruz) (1:6000 in 5% BSA in PBS, 50 µL/well), was added and incubated 1 h at RT. […] The reaction was stopped with 2 M H2SO4 and then the absorbance at 450 nm was measured using the microplate reader Synergy H1 (Winoo-ski, VT, USA). After the read, cells were stained by adding 1 X Janus Green stain, incubat-ing for 5 min at RT. […]
Afterward 100 µL 0.5 M HCl for well were added and incubated for 10 min. After 10 sec-onds shaking, the OD at 595 nm was measured using the microplate reader Synergy H1 […]
Fluorescent LDL Uptake. […] The degree of LDL uptake was measured using the Synergy H1 fluo-rescent plate reader (Winooski, VT, USA) (excitation and emission wavelengths 540 and 570 nm, respectively). Fluorescent LDL-uptake was finally assessed following optimized […]

Question: Which “LDLR protein level (words, P5)” value does the source give for “LILPKHSDAD [Peptide P5, natural peptide derived from a peptic lupin protein hydrolysate]” here?
Answer: The value was “augmentation of the LDLR protein levels”.

— publication PMC8951016, “Computational Design and Biological Evaluation of Analogs of Lupin Peptide P5 Endowed with Dual PCSK9/HMG-CoAR Inhibiting Activity” (Pharmaceutics, 2022)
